Measured values: publication PMC10692717, “Peptides designed from a bacteriophage capsid protein function as synthetic transcription repressors” (The Journal of Biological Chemistry, 2023)
pKd: −log10 of the molar value. Like-named read-outs stand apart in the source and are kept apart here. Where no end group is shown, it is not given here.

What was measured:
bacterial cells = conditions: cited from earlier work
E. coli = conditions: also cause cell death; ref [29]; cited from earlier work
Text: (§1) AMPs are prevalent in all forms of life. They are part of the natural defense mechanism of the organism. […] Another such small peptide that has the potential to be useful against drug-resistant bac ...

[1] = biological target: peptide 33 (bacteriophage P4 (designed variant)) (UniProt P05460); assay: EMSA; conditions: EMSA/competition: 10 mM Tris-HCl pH 8.0, 250 mM NaCl, 37 C, 10 min, 10 nM labeled nucleic acid, fluorescence: 10 mM Tris-Cl pH 8, 500 mM NaCl, 20-37 C
[2] = biological target: peptide 33 (bacteriophage P4 (designed variant)) (UniProt P05460); assay: competition; conditions: EMSA/competition: 10 mM Tris-HCl pH 8.0, 250 mM NaCl, 37 C, 10 min, 10 nM labeled nucleic acid, fluorescence: 10 mM Tris-Cl pH 8, 500 mM NaCl, 20-37 C, scale: fold excess over 292 bp dsDNA for 50% release
bacteria = conditions: acts by blocking the synthesis of macromolecules; ref [28]; cited from earlier work
Text: as §1

dsDNA = conditions: ref [30], [31], [32]; cited from earlier work
Text: as §1

For `O=C(N[C@H](CO)[C@H](O)c1ccc([N+](=O)[O-])cc1)C(Cl)Cl` [chloramphenicol], the elongated cell phenotype (bacterial cells; ref [21], [22]) is listed as “elongated cells phenotypes”.
For “HNP-2: human neutrophils-derived peptide defensin (CYCRIPACIAGERRYGTCIYQGRLWAFCC; ends and bridges not checked; cysteine pairing not given here; UniProt P59665 66-94, looked up)”, the “inhibition of DNA, RNA, and protein synthesis” value (from here on “inhibition of DNA, RNA”) (E. coli) is given as “inhibit the synthesis of DNA, RNA, and proteins”.
For `NC[C@H]1O[C@H](O[C@H]2[C@H](O)[C@@H](O[C@H]3O[C@H](CO)[C@@H](O)[C@H](N)[C@H]3O)[C@H](N)C[C@@H]2N)[C@H](O)[C@@H](O)[C@@H]1O` [kanamycin], the elongated cell phenotype (bacterial cells; ref [20]) is listed as “elongated cells phenotypes”.
For 160 bp dsDNA, the pKd [1] was 5.40.
“TGATCCTCCTCCTCCTGATCCTCCTCCTCCTGATCCTCCTCCTCCTGAGCGTTTCATCATTTCGAAGAAATCGTC [75-mer ssDNA (RS2230)]” showed a binding signal [2] of 9.5 and a pKd [1] of 6.13.
For “HNP-3: human neutrophils-derived peptide defensin”, the “inhibition of DNA, RNA” value (E. coli) is given as “inhibit the synthesis of DNA, RNA, and proteins”.
499 bp dsDNA showed a pKd [1] of 5.33.
“ATCTTCTCTCATCCGCCAAAACAGCC [26-mer ssDNA (RS1816)]” showed a pKd [1] of 5.70.
For gentamycin, the elongated cell phenotype (bacterial cells; ref [23]) is given as “elongated cells phenotypes”.
For Pleurocidin, the antibacterial activity (bacteria) is given as “broad-spectrum antibacterial activity”.
lambda tR1 RNA (284 nt) showed a binding signal [2] of 2.8.
For “HNP-1: human neutrophils-derived peptide defensin”, the “inhibition of DNA, RNA” value (E. coli) is given as “inhibit the synthesis of DNA, RNA, and proteins”.
In the case of “indolicidin: 13-mer peptide with tryptophan-rich sequences of the cathelicidin family of host defense peptides (ILPWKWPWWPWRR; ends and bridges not checked; UniProt P33046 131-143, looked up)”, the “binding to dsDNA” value (dsDNA) is listed as “binds to dsDNA”.
283 nt gfc RNA showed a pKd [1] of 6.00.
In the case of `NCC[C@H](O)C(=O)N[C@@H]1C[C@H](N)[C@@H](O[C@H]2O[C@H](CN)[C@@H](O)[C@H](O)[C@H]2O)[C@H](O)[C@H]1O[C@H]1O[C@H](CO)[C@@H](O)[C@H](N)[C@H]1O` [amikacin], the elongated cell phenotype (bacterial cells; ref [21]) is given as “elongated cells phenotypes”.
For `O=C(O)c1cn(C2CC2)c2cc(N3CCNCC3)c(F)cc2c1=O` [ciprofloxacin], the elongated cell phenotype (bacterial cells; ref [19]) is listed as “elongated cells phenotypes”.
292 bp dsDNA showed a pKd [1] of 5.56.
